Eight compounds from patent publication US10344060B2 (priority 2013, dated 2019) can be followed below.

Structures are written as SMILES.

What all share (assay): cell-based
One assay has as its target hNav1.4 (Homo sapiens, UniProt P35499). The format is cell-based. The settings on record: Table 6; for IC50: IonWorks Quattro, read-out: IC50 (μM) Nav1.4; for Nav1.4/Nav1.7: ratio of IonWorks Quattro IC50 values.
Another assay deals with hNav1.5 (Homo sapiens, UniProt Q14524). Conditions: IonWorks Quattro; Table 6; read-out: IC50 (μM) Nav1.5.
For another assay, the target named is hNav1.3 (Homo sapiens, UniProt Q9NY46). The settings on record: IonWorks Quattro; Table 6; read-out: IC50 (μM) Nav1.3.
The target of a further assay is hNav1.7 (Homo sapiens, UniProt Q15858). Conditions: read-out: IC50 (μM) Nav1.7.

Sequence of hNav1.5 (Q14524 whole entry): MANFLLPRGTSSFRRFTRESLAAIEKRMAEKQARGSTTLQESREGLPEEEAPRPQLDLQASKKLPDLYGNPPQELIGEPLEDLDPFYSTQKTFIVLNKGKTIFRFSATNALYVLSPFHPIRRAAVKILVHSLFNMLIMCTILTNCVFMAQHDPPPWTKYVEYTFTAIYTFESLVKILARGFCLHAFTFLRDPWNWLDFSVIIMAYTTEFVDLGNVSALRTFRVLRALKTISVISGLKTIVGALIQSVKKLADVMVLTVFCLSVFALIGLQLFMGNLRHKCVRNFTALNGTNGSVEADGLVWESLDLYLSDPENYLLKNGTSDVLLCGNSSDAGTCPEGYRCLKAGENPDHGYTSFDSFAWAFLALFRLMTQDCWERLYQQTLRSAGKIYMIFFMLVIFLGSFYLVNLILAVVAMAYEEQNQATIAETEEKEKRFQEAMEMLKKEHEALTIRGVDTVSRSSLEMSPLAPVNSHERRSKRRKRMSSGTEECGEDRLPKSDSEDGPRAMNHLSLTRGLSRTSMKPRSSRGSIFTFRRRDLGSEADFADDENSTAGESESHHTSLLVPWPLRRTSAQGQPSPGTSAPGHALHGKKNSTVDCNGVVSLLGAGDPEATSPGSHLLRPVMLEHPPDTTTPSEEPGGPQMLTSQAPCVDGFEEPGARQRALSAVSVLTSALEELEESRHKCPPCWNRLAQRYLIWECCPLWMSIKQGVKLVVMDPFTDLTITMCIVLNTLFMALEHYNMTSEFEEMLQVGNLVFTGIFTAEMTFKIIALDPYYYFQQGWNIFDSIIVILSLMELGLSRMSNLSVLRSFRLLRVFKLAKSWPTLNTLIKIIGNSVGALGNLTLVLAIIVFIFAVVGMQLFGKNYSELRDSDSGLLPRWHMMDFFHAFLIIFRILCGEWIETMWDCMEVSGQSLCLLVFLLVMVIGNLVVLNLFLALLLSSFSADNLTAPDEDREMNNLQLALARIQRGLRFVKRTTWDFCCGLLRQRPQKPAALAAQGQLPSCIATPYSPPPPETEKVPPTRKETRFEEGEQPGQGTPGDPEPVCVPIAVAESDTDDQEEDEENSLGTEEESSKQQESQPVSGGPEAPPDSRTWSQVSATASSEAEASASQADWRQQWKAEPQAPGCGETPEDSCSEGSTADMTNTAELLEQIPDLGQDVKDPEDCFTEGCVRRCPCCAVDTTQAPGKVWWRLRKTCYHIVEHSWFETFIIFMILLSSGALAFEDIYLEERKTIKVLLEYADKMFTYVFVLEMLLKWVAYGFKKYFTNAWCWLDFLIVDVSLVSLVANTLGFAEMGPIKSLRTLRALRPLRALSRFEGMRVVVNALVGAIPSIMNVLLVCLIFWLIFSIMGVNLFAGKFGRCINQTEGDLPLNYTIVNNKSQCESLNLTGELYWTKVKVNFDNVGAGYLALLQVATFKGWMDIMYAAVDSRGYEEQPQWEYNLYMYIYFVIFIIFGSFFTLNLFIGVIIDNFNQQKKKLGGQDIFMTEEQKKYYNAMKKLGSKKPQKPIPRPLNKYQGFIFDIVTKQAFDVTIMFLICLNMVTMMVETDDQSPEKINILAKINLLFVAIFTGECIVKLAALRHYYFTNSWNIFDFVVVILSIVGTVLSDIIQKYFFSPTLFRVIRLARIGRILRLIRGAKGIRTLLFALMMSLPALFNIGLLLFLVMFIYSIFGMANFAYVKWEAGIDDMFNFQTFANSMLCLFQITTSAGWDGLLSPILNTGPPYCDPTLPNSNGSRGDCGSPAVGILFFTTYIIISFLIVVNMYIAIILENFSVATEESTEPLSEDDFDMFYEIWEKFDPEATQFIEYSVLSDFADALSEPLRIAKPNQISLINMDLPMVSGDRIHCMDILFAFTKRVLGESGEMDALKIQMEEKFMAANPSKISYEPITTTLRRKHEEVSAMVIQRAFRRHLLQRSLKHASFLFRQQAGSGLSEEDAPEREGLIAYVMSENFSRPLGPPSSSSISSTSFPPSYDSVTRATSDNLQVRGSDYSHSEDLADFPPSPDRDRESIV
Sequence of hNav1.4 (P35499 whole entry): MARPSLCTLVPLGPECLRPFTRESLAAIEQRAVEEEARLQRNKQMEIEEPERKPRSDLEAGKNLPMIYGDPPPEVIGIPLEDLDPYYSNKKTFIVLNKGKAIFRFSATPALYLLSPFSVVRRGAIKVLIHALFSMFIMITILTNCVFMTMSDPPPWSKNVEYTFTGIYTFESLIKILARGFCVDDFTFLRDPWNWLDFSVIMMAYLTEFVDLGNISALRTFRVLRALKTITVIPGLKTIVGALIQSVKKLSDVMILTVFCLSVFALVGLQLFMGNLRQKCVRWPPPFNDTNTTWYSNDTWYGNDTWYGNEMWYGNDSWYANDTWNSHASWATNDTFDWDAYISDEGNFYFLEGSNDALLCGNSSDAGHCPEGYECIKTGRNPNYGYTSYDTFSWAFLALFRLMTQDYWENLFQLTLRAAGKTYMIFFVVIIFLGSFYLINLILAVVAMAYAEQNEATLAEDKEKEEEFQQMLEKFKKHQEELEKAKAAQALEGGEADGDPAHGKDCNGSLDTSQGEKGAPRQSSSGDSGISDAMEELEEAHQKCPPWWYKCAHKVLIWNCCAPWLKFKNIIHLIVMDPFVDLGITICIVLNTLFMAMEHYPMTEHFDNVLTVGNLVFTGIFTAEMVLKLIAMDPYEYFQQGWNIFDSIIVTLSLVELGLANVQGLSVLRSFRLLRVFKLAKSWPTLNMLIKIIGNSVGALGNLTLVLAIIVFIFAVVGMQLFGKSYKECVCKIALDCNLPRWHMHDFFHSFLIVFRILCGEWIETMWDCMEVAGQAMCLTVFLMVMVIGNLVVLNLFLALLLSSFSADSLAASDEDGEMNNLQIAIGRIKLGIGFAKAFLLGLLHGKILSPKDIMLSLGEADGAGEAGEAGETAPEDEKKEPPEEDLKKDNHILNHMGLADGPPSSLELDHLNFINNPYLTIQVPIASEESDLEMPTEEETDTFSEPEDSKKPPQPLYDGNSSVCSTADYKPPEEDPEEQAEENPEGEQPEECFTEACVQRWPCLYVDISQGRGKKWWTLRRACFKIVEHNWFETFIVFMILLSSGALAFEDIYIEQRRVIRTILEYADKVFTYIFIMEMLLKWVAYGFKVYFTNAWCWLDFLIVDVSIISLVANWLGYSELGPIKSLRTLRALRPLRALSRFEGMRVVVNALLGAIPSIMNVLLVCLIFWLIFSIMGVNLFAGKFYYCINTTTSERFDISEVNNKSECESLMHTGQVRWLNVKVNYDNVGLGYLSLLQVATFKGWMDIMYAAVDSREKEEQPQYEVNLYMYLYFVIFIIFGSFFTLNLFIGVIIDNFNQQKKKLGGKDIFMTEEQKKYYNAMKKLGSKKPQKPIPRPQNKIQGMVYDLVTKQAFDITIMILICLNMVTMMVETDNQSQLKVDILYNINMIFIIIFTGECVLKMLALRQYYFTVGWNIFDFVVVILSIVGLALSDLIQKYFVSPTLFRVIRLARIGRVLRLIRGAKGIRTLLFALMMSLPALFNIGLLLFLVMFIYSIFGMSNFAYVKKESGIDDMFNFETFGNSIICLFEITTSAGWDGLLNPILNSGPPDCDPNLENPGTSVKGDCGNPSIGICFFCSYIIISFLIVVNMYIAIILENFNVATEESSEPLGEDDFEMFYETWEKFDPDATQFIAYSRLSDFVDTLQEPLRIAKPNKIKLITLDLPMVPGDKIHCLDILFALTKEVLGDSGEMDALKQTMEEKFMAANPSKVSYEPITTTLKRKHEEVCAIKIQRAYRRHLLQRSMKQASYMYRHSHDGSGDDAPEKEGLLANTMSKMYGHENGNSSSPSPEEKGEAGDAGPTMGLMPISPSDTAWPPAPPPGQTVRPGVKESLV

For the compound `CC[C@H](C)[C@H](NC(=O)[C@@H](NC(=O)[C@H](CCCCN)NC(=O)[C@H](CCCNC(=N)N)NC(=O)[C@@H]1CSSC[C@@H]2NC(=O)[C@H](C)NC(=O)[C@H](CCCNC(=N)N)NC(=O)[C@H](CCCCN)NC(=O)[C@H](CO)NC(=O)[C@H](CC(=O)O)NC(=O)[C@@H]3CSSC[C@H](NC(=O)[C@H](CCCNC(=N)N)NC(=O)[C@H](CC(C)C)NC(=O)CNC(=O)[C@H](CCC(=O)O)NC(=O)[C@H](CSSC[C@H](NC(=O)[C@@H](N)Cc4ccc(O)cc4)C(=O)N[C@@H](CCC(N)=O)C(=O)N[C@@H](CCCCN)C(=O)N[C@@H](Cc4c[nH]c5ccccc45)C(=O)N[C@@H](CCSC)C(=O)N[C@@H](CCCNC(=N)N)C(=O)N[C@@H]([C@@H](C)O)C(=O)N3)NC2=O)C(=O)N[C@@H](CCCCN)C(=O)N[C@@H](CC(C)C)C(=O)N[C@@H](Cc2c[nH]c3ccccc23)C(=O)N1)[C@@H](C)CC)C(N)=O` [compound 95], the IC50 was 0.4 µM on hNav1.4, greater than 5 µM at hNav1.5, 0.08 µM at hNav1.3 and 0.053 µM on hNav1.7. Further, at hNav1.4, the Nav1.4/Nav1.7 came out at 8.
The corresponding values for `CC[C@H](C)[C@H](NC(=O)[C@@H](NC(=O)[C@H](CCCCN)NC(=O)[C@H](CCCNC(=N)N)NC(=O)[C@@H]1CSSC[C@@H]2NC(=O)[C@H](C)NC(=O)[C@H](CCCNC(=N)N)NC(=O)[C@H](CCCCN)NC(=O)[C@H](CO)NC(=O)[C@H](CC(=O)O)NC(=O)[C@@H]3CSSC[C@H](NC(=O)[C@H](CCCNC(=N)N)NC(=O)[C@H](CC(C)C)NC(=O)CNC(=O)[C@H](CCC(=O)O)NC(=O)[C@H](CSSC[C@H](NC(=O)[C@@H](N)Cc4ccc(O)cc4)C(=O)N[C@@H](CCC(N)=O)C(=O)N[C@@H](CCCCN)C(=O)N[C@@H](Cc4c[nH]c5ccccc45)C(=O)N[C@@H](CCSC)C(=O)N[C@@H](Cc4c[nH]c5ccccc45)C(=O)N[C@@H](CCCNC(=N)N)C(=O)N3)NC2=O)C(=O)N[C@@H](CCCCN)C(=O)N[C@@H](CC(C)C)C(=O)N[C@@H](Cc2c[nH]c3ccccc23)C(=O)N1)[C@@H](C)CC)C(N)=O` [compound 96] are 0.14 µM, 1.7 µM, 0.05 µM, 0.018 µM and 7.
The corresponding values for `CC[C@H](C)[C@H](NC(=O)[C@@H](NC(=O)[C@H](CCCCN)NC(=O)[C@H](CCCNC(=N)N)NC(=O)[C@@H]1CSSC[C@@H]2NC(=O)[C@H](C)NC(=O)[C@H](CCCNC(=N)N)NC(=O)[C@H](CCCCN)NC(=O)[C@H](CCCNC(=N)N)NC(=O)[C@H](CC(=O)O)NC(=O)[C@@H]3CSSC[C@H](NC(=O)[C@H](CCCNC(=N)N)NC(=O)[C@H](CC(C)C)NC(=O)CNC(=O)[C@H](CCC(=O)O)NC(=O)[C@H](CSSC[C@H](NC(=O)[C@@H](N)Cc4ccc(O)cc4)C(=O)N[C@@H](CCC(N)=O)C(=O)N[C@@H](CCCCN)C(=O)N[C@@H](Cc4c[nH]c5ccccc45)C(=O)N[C@@H](CCSC)C(=O)N[C@@H](Cc4c[nH]c5ccccc45)C(=O)N[C@@H]([C@@H](C)O)C(=O)N3)NC2=O)C(=O)N[C@@H](CCCCN)C(=O)N[C@@H](CC(C)C)C(=O)N[C@@H](Cc2c[nH]c3ccccc23)C(=O)N1)[C@@H](C)CC)C(N)=O` [compound 98] are 0.09 µM, 0.86 µM, 0.03 µM, 0.007 µM and 12.
`CC[C@H](C)[C@H](NC(=O)[C@@H](NC(=O)[C@H](CCCCN)NC(=O)[C@H](CCCNC(=N)N)NC(=O)[C@@H]1CSSC[C@@H]2NC(=O)[C@H](C)NC(=O)[C@H](CCCNC(=N)N)NC(=O)[C@H](CCCNC(=N)N)NC(=O)[C@H](CO)NC(=O)[C@H](CC(=O)O)NC(=O)[C@@H]3CSSC[C@H](NC(=O)[C@H](CCCNC(=N)N)NC(=O)[C@H](CC(C)C)NC(=O)CNC(=O)[C@H](CCC(=O)O)NC(=O)[C@H](CSSC[C@H](NC(=O)[C@@H](N)Cc4ccc(O)cc4)C(=O)N[C@@H](CCC(N)=O)C(=O)N[C@@H](CCCCN)C(=O)N[C@@H](Cc4c[nH]c5ccccc45)C(=O)N[C@@H](CCSC)C(=O)N[C@@H](Cc4c[nH]c5ccccc45)C(=O)N[C@@H]([C@@H](C)O)C(=O)N3)NC2=O)C(=O)N[C@@H](CCCCN)C(=O)N[C@@H](CC(C)C)C(=O)N[C@@H](Cc2c[nH]c3ccccc23)C(=O)N1)[C@@H](C)CC)C(N)=O` [compound 99]: the IC50 is 0.15 µM on hNav1.4, 2.5 µM at hNav1.5, 0.05 µM at hNav1.3 and 0.008 µM at hNav1.7. For the same compound, the Nav1.4/Nav1.7 on hNav1.4 stood at 19.
The corresponding values for `CC[C@H](C)[C@H](NC(=O)[C@@H](NC(=O)[C@H](CCCCN)NC(=O)[C@H](CCCNC(=N)N)NC(=O)[C@@H]1CSSC[C@@H]2NC(=O)[C@H](CCCNC(=N)N)NC(=O)[C@H](CCCNC(=N)N)NC(=O)[C@H](CCCCN)NC(=O)[C@H](CO)NC(=O)[C@H](CC(=O)O)NC(=O)[C@@H]3CSSC[C@H](NC(=O)[C@H](CCCNC(=N)N)NC(=O)[C@H](CC(C)C)NC(=O)CNC(=O)[C@H](CCC(=O)O)NC(=O)[C@H](CSSC[C@H](NC(=O)[C@@H](N)Cc4ccc(O)cc4)C(=O)N[C@@H](CCC(N)=O)C(=O)N[C@@H](CCCCN)C(=O)N[C@@H](Cc4c[nH]c5ccccc45)C(=O)N[C@@H](CCSC)C(=O)N[C@@H](Cc4c[nH]c5ccccc45)C(=O)N[C@@H]([C@@H](C)O)C(=O)N3)NC2=O)C(=O)N[C@@H](CCCCN)C(=O)N[C@@H](CC(C)C)C(=O)N[C@@H](Cc2c[nH]c3ccccc23)C(=O)N1)[C@@H](C)CC)C(N)=O` [compound 100] are 0.08 µM, 1.4 µM, 0.04 µM, 0.008 µM and 11.
On to `CC[C@H](C)[C@H](NC(=O)[C@@H](NC(=O)[C@H](CCCCN)NC(=O)[C@H](CCCNC(=N)N)NC(=O)[C@@H]1CSSC[C@@H]2NC(=O)[C@H](C)NC(=O)[C@H](CCCNC(=N)N)NC(=O)[C@H](CCCCN)NC(=O)[C@H](CO)NC(=O)[C@H](CC(=O)O)NC(=O)[C@@H]3CSSC[C@H](NC(=O)[C@H](CCCNC(=N)N)NC(=O)[C@H](CC(C)C)NC(=O)CNC(=O)[C@H](CCCNC(=N)N)NC(=O)[C@H](CSSC[C@H](NC(=O)[C@@H](N)Cc4ccc(O)cc4)C(=O)N[C@@H](CCC(N)=O)C(=O)N[C@@H](CCCCN)C(=O)N[C@@H](Cc4c[nH]c5ccccc45)C(=O)N[C@@H](CCSC)C(=O)N[C@@H](Cc4c[nH]c5ccccc45)C(=O)N[C@@H]([C@@H](C)O)C(=O)N3)NC2=O)C(=O)N[C@@H](CCCCN)C(=O)N[C@@H](CC(C)C)C(=O)N[C@@H](Cc2c[nH]c3ccccc23)C(=O)N1)[C@@H](C)CC)C(N)=O` [compound 101], for which the IC50 at hNav1.4 came to 0.06 µM; at hNav1.5 it was 0.95 µM; on hNav1.3 it was 0.04 µM; at hNav1.7 it was 0.014 µM. Further, the Nav1.4/Nav1.7 on hNav1.4 is recorded as 4.
On to `CC[C@H](C)[C@H](NC(=O)[C@@H](NC(=O)[C@H](CCCCN)NC(=O)[C@H](CCCNC(=N)N)NC(=O)[C@@H]1CSSC[C@@H]2NC(=O)[C@H](C)NC(=O)[C@H](CCCNC(=N)N)NC(=O)[C@H](CCCCN)NC(=O)[C@H](CO)NC(=O)[C@H](CC(=O)O)NC(=O)[C@@H]3CSSC[C@H](NC(=O)[C@H](CCCNC(=N)N)NC(=O)[C@H](CC(C)C)NC(=O)CNC(=O)[C@H](CCC(=O)O)NC(=O)[C@H](CSSC[C@H](NC(=O)[C@@H](N)Cc4ccc(O)cc4)C(=O)N[C@@H](CCC(N)=O)C(=O)N[C@@H](CCCCN)C(=O)N[C@@H](Cc4c[nH]c5ccccc45)C(=O)N[C@@H](CCSC)C(=O)N[C@@H](Cc4c[nH]c5ccccc45)C(=O)N[C@@H]([C@@H](C)O)C(=O)N3)NC2=O)C(=O)N[C@@H](CCCNC(=N)N)C(=O)N[C@@H](CC(C)C)C(=O)N[C@@H](Cc2c[nH]c3ccccc23)C(=O)N1)[C@@H](C)CC)C(N)=O` [compound 104], for which the IC50 on hNav1.4 was determined as 0.17 µM; at hNav1.5, 2 µM; at hNav1.3, 0.08 µM; at hNav1.7, 0.016 µM. For the same compound, the Nav1.4/Nav1.7 on hNav1.4 is given as 11.
The corresponding values for `CC[C@H](C)[C@H](NC(=O)[C@@H](NC(=O)[C@H](CCCCN)NC(=O)[C@H](CCCNC(=N)N)NC(=O)[C@@H]1CSSC[C@@H]2NC(=O)[C@H](C)NC(=O)[C@H](CCCNC(=N)N)NC(=O)[C@H](CCCCN)NC(=O)[C@H](CO)NC(=O)[C@H](CC(=O)O)NC(=O)[C@@H]3CSSC[C@H](NC(=O)[C@H](CCCNC(=N)N)NC(=O)[C@H](CC(C)C)NC(=O)CNC(=O)[C@H](CCC(=O)O)NC(=O)[C@H](CSSC[C@H](NC(=O)[C@@H](N)Cc4ccc(O)cc4)C(=O)N[C@@H](CCC(N)=O)C(=O)N[C@@H](CCCCN)C(=O)N[C@@H](Cc4c[nH]c5ccccc45)C(=O)N[C@@H](CCSC)C(=O)N[C@@H](Cc4c[nH]c5ccccc45)C(=O)N[C@@H]([C@@H](C)O)C(=O)N3)NC2=O)C(=O)N[C@@H](CCCCN)C(=O)N[C@@H](CCCNC(=N)N)C(=O)N[C@@H](Cc2c[nH]c3ccccc23)C(=O)N1)[C@@H](C)CC)C(N)=O` [compound 105] are 0.21 µM, 2.8 µM, 0.15 µM, 0.15 µM and 1.
